How the values were obtained:
Assay in all cases: competitive isoTOP-ABPP
Format in all cases: binding
[1] = molecular target: T1, HAUS4 HAUS augmin-like complex subunit 4 (Homo sapiens, UniProt Q9H6D7); details: for R value (DMSO/fragment) for probe 1 labeling: Q9H6D7_K271; for R value (DMSO/fragment) for probe 1 labeling / isoTOP-ABPP reactivity ratio at lysine Q9H6D7_K271 / isoTOP-ABPP ratio (R) at liganded lysine Q9H6D7_K271: 50 uM, in vitro; for R value (DMSO/fragment) for probe 1 labeling / isoTOP-ABPP reactivity ratio at lysine Q9H6D7_K271: 231 sol; for isoTOP-ABPP ratio (R) at liganded lysine Q9H6D7_K271: sol, 231
T1 construct: endogenous in cells; host or cells: MDA-MB-231 (soluble fraction of lysate)
T1 sequence (Q9H6D7 1-363): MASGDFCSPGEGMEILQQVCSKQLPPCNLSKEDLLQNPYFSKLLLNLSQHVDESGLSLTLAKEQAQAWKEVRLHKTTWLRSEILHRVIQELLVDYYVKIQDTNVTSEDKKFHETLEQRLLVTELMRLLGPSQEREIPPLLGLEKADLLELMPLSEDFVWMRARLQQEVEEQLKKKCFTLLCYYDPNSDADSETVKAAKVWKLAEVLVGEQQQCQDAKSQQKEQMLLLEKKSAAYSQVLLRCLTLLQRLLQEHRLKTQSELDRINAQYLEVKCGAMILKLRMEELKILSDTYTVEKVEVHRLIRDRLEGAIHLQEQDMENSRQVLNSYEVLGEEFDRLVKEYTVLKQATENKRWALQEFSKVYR
How it was run: (§1)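 Fragments at 50 μM (activated esters) or 100 μM (guanidinylating agents) were incubated with 0.5 ml lysate before probe labeling. After 0.1 mM STP-alkyne for 1 h, samples were clicked to isotopically distinct TEV tags, and R taken as DMSO-over-compound MS1 peak-area ratio.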

[2] = molecular target: T2, PTRF Polymerase I and transcript release factor (Homo sapiens, UniProt Q6NZI2); details: for isoTOP-ABPP ratio (R) at liganded lysine Q6NZI2_K326: sol, 231
T2 construct: isoTOP-ABPP experiments performed in cell lysates (in vitro); endogenous in cells; host or cells: soluble proteome of human cancer cell lines (MDA-MB-231; Ramos and Jurkat also prepared)
T2 sequence (Q6NZI2 1-390): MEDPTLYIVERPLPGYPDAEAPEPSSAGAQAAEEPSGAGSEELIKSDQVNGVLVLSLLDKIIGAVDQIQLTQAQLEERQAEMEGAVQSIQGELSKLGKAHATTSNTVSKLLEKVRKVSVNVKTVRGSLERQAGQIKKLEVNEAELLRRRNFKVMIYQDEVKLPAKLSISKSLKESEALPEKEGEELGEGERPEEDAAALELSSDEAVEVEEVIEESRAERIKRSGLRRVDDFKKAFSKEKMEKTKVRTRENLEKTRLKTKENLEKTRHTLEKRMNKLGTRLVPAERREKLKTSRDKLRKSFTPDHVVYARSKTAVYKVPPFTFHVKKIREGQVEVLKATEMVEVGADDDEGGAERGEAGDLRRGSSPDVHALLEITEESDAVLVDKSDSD
How it was run: as §1

[3] = molecular target: T3, SNX8 Sorting nexin-8 (Homo sapiens, UniProt Q9Y5X2); details: for isoTOP-ABPP reactivity ratio at lysine Q9Y5X2_K316 / isoTOP-ABPP ratio (R) at liganded lysine Q9Y5X2_K316: 50 uM, in vitro; for isoTOP-ABPP reactivity ratio at lysine Q9Y5X2_K316: 231 sol; for isoTOP-ABPP ratio (R) at liganded lysine Q9Y5X2_K316: sol, 231; for isoTOP-ABPP ratio, lysine Q9Y5X2_K316: 50 uM_231_sol_in vitro
T3 construct: endogenous in cells; host or cells: MDA-MB-231 lysate
T3 sequence (Q9Y5X2 1-465): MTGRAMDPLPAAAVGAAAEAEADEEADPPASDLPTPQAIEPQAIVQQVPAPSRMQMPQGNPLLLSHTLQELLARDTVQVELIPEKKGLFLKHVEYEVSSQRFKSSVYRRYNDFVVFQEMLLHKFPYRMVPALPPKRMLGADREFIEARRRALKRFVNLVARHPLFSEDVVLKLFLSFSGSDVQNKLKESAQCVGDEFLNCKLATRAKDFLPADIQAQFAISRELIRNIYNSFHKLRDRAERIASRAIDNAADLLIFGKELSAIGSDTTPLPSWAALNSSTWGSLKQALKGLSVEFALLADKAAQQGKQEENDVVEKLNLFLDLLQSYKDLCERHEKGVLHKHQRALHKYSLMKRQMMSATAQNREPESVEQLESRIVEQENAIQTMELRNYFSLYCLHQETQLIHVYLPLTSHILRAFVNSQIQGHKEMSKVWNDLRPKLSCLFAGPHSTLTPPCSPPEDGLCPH
How it was run: as §1

## O=C(Oc1c(F)c(F)c(F)c(F)c1F)C(c1ccccc1)c1ccccc1 [fragment 20, Pentafluorophenyl 2,2-diphenylacetate]
[1]
  R value (DMSO/fragment) for probe 1 labeling: 0.7

## Cn1cc(CC(=O)Oc2c(F)c(F)c(F)c(F)c2F)c2ccccc21 [fragment 22, Pentafluorophenyl 2-(1-methyl-1H-indol-3-yl)acetate]
[1]
  R value (DMSO/fragment) for probe 1 labeling: 0.9
[2]; Q6NZI2_K326, 50 uM, 231 sol, in vitro
  R value (DMSO/fragment) for probe 1 labeling: 20.0

## O=C(Oc1c(F)c(F)c(F)c(F)c1F)C1CCN(C(=O)OCc2ccccc2)CC1 [fragment 24, 1-Benzyl 4-(pentafluorophenyl) piperidine-1,4-dicarboxylate]
[1]
  isoTOP-ABPP reactivity ratio at lysine Q9H6D7_K271: 0.8

## O=C(CCc1cn(-c2ccccc2)nc1-c1ccccc1)Oc1ccc([N+](=O)[O-])cc1[N+](=O)[O-] [fragment 29, 2,4-Dinitrophenyl 3-(1,3-diphenyl-1H-pyrazol-4-yl)propanoate]
[2]; 50 uM, 231 sol, in vitro
  isoTOP-ABPP reactivity ratio at lysine Q6NZI2_K326: 20.0
[3]
  isoTOP-ABPP reactivity ratio at lysine Q9Y5X2_K316: 3.4

## O=C(Oc1ccc([N+](=O)[O-])cc1[N+](=O)[O-])C(c1ccccc1)c1ccccc1 [fragment 30, 2,4-Dinitrophenyl 2,2-diphenylacetate]
[1]
  isoTOP-ABPP reactivity ratio at lysine Q9H6D7_K271: 1.0

## Cn1cc(CC(=O)Oc2ccc([N+](=O)[O-])cc2[N+](=O)[O-])c2ccccc21 [fragment 32, 2,4-Dinitrophenyl 2-(1-methyl-1H-indol-3-yl)acetate]
[1]
  isoTOP-ABPP reactivity ratio at lysine Q9H6D7_K271: 1.0

## COc1cc(CCC(=O)Oc2ccc([N+](=O)[O-])cc2[N+](=O)[O-])cc(OC)c1OC [fragment 33, 2,4-Dinitrophenyl 3-(3,4,5-trimethoxyphenyl)propanoate]
[3]
  isoTOP-ABPP reactivity ratio at lysine Q9Y5X2_K316: 4.1

## O=C(CCc1coc2cc(F)ccc2c1=O)Oc1ccc([N+](=O)[O-])cc1[N+](=O)[O-] [fragment 36, 2,4-Dinitrophenyl 3-(7-fluoro-4-oxo-4H-chromen-3-yl)propanoate]
[3]
  isoTOP-ABPP ratio (R) at liganded lysine Q9Y5X2_K316: 3.6

## O=C(Oc1ccc([N+](=O)[O-])cc1[N+](=O)[O-])c1ccc(-c2ccccc2)cc1 [fragment 37, 2,4-Dinitrophenyl [1,1′-biphenyl]-4-carboxylate]
[1]
  isoTOP-ABPP ratio (R) at liganded lysine Q9H6D7_K271: 0.7
[2]; 50 uM, in vitro
  isoTOP-ABPP ratio (R) at liganded lysine Q6NZI2_K326: 20.0

## O=C(Oc1ccc([N+](=O)[O-])cc1[N+](=O)[O-])c1ccc(Oc2ccccc2)cc1 [fragment 39, 2,4-Dinitrophenyl 4-phenoxybenzoate]
[2]; 50 uM, in vitro
  isoTOP-ABPP ratio (R) at liganded lysine Q6NZI2_K326: 0.8
[3]
  isoTOP-ABPP ratio (R) at liganded lysine Q9Y5X2_K316: 1.4

## O=C(Oc1ccc([N+](=O)[O-])cc1[N+](=O)[O-])c1ccccc1Nc1cccc(C(F)(F)F)c1 [fragment 40, 2,4-Dinitrophenyl 2-((3-(trifluoromethyl)phenyl)amino)benzoate]
[1]
  isoTOP-ABPP ratio (R) at liganded lysine Q9H6D7_K271: 0.7
[2]; 50 uM, in vitro
  isoTOP-ABPP ratio (R) at liganded lysine Q6NZI2_K326: 20.0
[3]
  isoTOP-ABPP ratio (R) at liganded lysine Q9Y5X2_K316: 2.0

## N#Cc1ccc(C(=O)Oc2ccc([N+](=O)[O-])cc2[N+](=O)[O-])cc1 [fragment 44, 2,4-Dinitrophenyl 4-cyanobenzoate]
[1]; 50 uM_231_sol_in vitro
  isoTOP-ABPP ratio, lysine Q9H6D7_K271: 0.9

## O=C(CCc1ccc2c(c1)OCO2)Oc1ccc([N+](=O)[O-])cc1[N+](=O)[O-] [fragment 45, 2,4-Dinitrophenyl 3-(benzo[d][1,3]dioxol-5-yl)propanoate]
[1]; 50 uM_231_sol_in vitro
  isoTOP-ABPP ratio, lysine Q9H6D7_K271: 1.1
[2]; 50 uM_231_sol_in vitro
  isoTOP-ABPP ratio, lysine Q6NZI2_K326: 0.9

## O=C(ON1C(=O)CCC1=O)c1cc(C(F)(F)F)cc(C(F)(F)F)c1 [fragment 46, 3,5-Bis(trifluoromethyl)benzoic acid NHS ester]
[3]
  isoTOP-ABPP ratio, lysine Q9Y5X2_K316: 2.7

## CC(C)(C)OC(=O)N=C(NC(=O)OC(C)(C)C)n1cccn1 [fragment 50, reference compound]
[1]; 100 uM_231_sol_in vitro
  isoTOP-ABPP ratio, lysine Q9H6D7_K271: 4.3

## NC(=O)c1cc(C(F)(F)F)cc(C(F)(F)F)c1 [fragment 51, reference compound]
[3]
  isoTOP-ABPP ratio, lysine Q9Y5X2_K316: 1.2
